Like-named read-outs stand apart in the source and are kept apart here.

The record followed here is patent US11566007B2, “Ras inhibitors” (Revolution Medicines, Inc., priority 2019, dated 2023).

Test [1] has as its target KRAS G12V (Homo sapiens (Human), UniProt P01116+P62937, G12V). Kind of test: Ras-Raf (BRAF RBD) disruption / FRET / MOA assay, KRAS G12V. It counts as biochemical. Particulars: read-out: IC50* KRAS G12V FRET data. In outline:
(§1)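 A 10-point, 3-fold dilution series topping at 30 μM final was incubated 3 h at 25° C with the Ras/cyclophilin A/BRAF RBD mixture.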

Test [2] has as its system NCI-H358 (K-Ras G12C). Kind of test: CellTiter-Glo cell viability assay, NCI-H358. The class given is cell-based, human. Particulars: Homo sapiens, NCI-H358, 120 h. In short, it runs like this:
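Steps: compound dispensed into wells holding cells; incubation to day 5; ~30 min room-temperature equilibration; luminescence read; sample signal divided by mean DMSO signal, times 100; four-parameter logistic curve fit.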
(In ATP-based viability assays light output follows the ATP content of the culture.)

For test [3], the target named is KRAS WT (Homo sapiens (Human), UniProt P01116+P62937). Kind of test: Ras-Raf (BRAF RBD) disruption / FRET / MOA assay, KRAS WT. It counts as biochemical. The conditions noted are these: read-out: IC50* KRAS WT FRET data. In short, it runs like this:
as §1

Test [4] deals with NRAS WT (Homo sapiens (Human), UniProt P01111+P62937). Kind of test: Ras-Raf (BRAF RBD) disruption / FRET / MOA assay, NRAS WT. The conditions noted are these: read-out: IC50* NRAS WT FRET data. It counts as biochemical. In short, it runs like this: (§2)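 Compounds (30 μM top final, 10-point 3-fold dilutions) incubated 3 h at 25° C with nucleotide-loaded Ras, cyclophilin A and BRAF RBD. Detection with 10 nM anti-His Eu-W1024 and 50 nM anti-GST allophycocyanin over another 1.5 h. Lowered TR-FRET ratio relative to DMSO wells gives IC50.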

Test [5] addresses KRAS G12D (Homo sapiens (Human), UniProt P01116+P62937, G12D). Description: Ras-Raf (BRAF RBD) disruption / FRET / MOA assay, KRAS G12D. The class given is biochemical. Particulars: Ras-Raf disruption/FRET/MOA assay; class symbols; read-out: KRAS G12D FRET data IC50. In short, it runs like this: as §1
The target of test [6] is K-Ras G13C (Homo sapiens (Human), UniProt P01116+P62937, G13C). Kind of test: Ras-Raf (BRAF RBD) disruption / FRET / MOA assay, KRAS G13C. The class given is biochemical. In outline:
as §1

The target of test [7] is KRAS G13D (Homo sapiens (Human), UniProt P01116+P62937, G13D). Description: Ras-Raf (BRAF RBD) disruption / FRET / MOA assay, KRAS G13D. It counts as biochemical. The conditions noted are these: read-out: IC50* KRAS G13D FRET data. In outline: as §1
Test [8] addresses KRAS G12S (Homo sapiens (Human), UniProt P01116+P62937, G12S). Kind of test: Ras-Raf (BRAF RBD) disruption / FRET / MOA assay, KRAS G12S. The class given is biochemical. The conditions noted are these: Ras-Raf disruption/FRET/MOA assay; class symbols; read-out: KRAS G12S FRET data IC50. In outline:
as §1

For test [9], the target named is NRAS Q61K (Homo sapiens (Human), UniProt P01111+P62937, Q61K). Kind of test: Ras-Raf (BRAF RBD) disruption / FRET / MOA assay, NRAS Q61K. The conditions noted are these: NRAS Q61K; Ras-Raf disruption/FRET/MOA assay; read-out: IC50* NRAS Q61K FRET data. The class given is biochemical. In outline: as §2
For test [10], the target named is NRAS Q61R (Homo sapiens (Human), UniProt P01111+P62937, Q61R). Description: Ras-Raf (BRAF RBD) disruption / FRET / MOA assay, NRAS Q61R. The class given is biochemical. The conditions noted are these: NRAS Q61R; Ras-Raf disruption/FRET/MOA assay; read-out: IC50* NRAS Q61R FRET data. In outline:
as §2

The mark [11] stands for this setting: NCI-H358, 5-day treatment, class symbols, read-out: Additional H358 Cell Viability assay data (K-Ras G12C, IC50).
The mark [12] stands for this setting: KRAS G13C, Ras-Raf disruption/FRET/MOA assay, read-out: IC50* KRAS G13C FRET data.

Chain of KRAS G13D (P01116-2 other isoform, or with tags, fused parts or gaps G13D): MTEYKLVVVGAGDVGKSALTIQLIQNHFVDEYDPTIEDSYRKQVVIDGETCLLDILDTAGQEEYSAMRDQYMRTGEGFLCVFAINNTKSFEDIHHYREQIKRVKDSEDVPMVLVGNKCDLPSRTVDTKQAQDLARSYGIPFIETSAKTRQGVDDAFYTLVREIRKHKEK
Chain of KRAS G13D (P62937 whole entry): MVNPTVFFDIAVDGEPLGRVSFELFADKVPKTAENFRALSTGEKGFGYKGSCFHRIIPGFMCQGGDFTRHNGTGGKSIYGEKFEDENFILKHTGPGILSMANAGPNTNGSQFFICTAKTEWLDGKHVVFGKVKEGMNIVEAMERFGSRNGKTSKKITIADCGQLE
Chain of NRAS Q61K (P01111 whole entry Q61K): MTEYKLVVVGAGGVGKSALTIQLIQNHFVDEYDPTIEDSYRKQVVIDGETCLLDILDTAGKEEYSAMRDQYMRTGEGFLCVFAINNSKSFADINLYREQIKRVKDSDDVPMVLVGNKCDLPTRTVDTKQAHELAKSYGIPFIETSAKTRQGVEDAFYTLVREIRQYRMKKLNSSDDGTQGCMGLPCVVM
Chain of NRAS Q61K (P62937 whole entry): as the sequence (P62937 whole entry) above
Chain of KRAS G12V (P01116-2 other isoform, or with tags, fused parts or gaps G12V): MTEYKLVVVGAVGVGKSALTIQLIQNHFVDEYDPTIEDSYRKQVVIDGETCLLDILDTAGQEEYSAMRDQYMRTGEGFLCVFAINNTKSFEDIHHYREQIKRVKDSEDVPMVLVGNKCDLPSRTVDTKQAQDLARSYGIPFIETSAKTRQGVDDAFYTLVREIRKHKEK
Chain of KRAS G12V (P62937 whole entry): as the sequence (P62937 whole entry) above
Chain of NRAS Q61R (P01111 whole entry Q61R): as the sequence (P01111 whole entry Q61K) above, with K61R counted along it
Chain of NRAS Q61R (P62937 whole entry): as the sequence (P62937 whole entry) above
Chain of KRAS G12S (P01116-2 other isoform, or with tags, fused parts or gaps G12S): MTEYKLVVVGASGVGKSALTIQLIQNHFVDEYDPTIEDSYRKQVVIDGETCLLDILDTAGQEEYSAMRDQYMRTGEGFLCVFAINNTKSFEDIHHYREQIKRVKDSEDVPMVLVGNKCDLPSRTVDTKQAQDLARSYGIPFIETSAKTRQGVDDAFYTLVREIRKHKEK
Chain of KRAS G12S (P62937 whole entry): as the sequence (P62937 whole entry) above
Chain of KRAS WT (P01116-2 other isoform, or with tags, fused parts or gaps): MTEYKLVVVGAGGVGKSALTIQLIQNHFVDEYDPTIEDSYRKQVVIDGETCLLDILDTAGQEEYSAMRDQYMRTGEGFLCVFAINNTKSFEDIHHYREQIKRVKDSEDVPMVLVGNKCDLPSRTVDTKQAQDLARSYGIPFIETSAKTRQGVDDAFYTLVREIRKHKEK
Chain of KRAS WT (P62937 whole entry): as the sequence (P62937 whole entry) above
Chain of K-Ras G13C (P01116-2 other isoform, or with tags, fused parts or gaps G13C): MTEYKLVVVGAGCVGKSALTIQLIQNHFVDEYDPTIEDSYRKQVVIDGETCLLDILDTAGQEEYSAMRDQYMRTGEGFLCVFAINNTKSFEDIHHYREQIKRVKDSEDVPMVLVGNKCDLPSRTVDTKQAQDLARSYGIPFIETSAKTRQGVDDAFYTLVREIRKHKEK
Chain of K-Ras G13C (P62937 whole entry): as the sequence (P62937 whole entry) above
Chain of NRAS WT (P01111 whole entry): as the sequence (P01111 whole entry Q61K) above, with K61Q counted along it
Chain of NRAS WT (P62937 whole entry): as the sequence (P62937 whole entry) above
Chain of KRAS G12D (P01116-2 other isoform, or with tags, fused parts or gaps G12D): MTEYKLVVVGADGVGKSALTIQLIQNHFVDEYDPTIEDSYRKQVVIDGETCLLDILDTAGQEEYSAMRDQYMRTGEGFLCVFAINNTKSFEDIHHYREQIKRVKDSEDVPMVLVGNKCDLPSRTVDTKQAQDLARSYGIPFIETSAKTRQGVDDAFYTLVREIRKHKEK
Chain of KRAS G12D (P62937 whole entry): as the sequence (P62937 whole entry) above

Turning to `C=CS(=O)(=O)N1CCC(C(=O)N(C)[C@H](C(=O)N[C@H]2Cc3nc(cs3)-c3ccc4c(c3)c(c(-c3cncnc3)n4CC)CC(C)(C)COC(=O)[C@@H]3CCCN(N3)C2=O)C(C)C)C1` (single isomer, unassigned) [Example A170], the IC50 is more than 10 µM in test [1]; 0.1 to 1 µM in [2] (setting [11]); more than 10 µM in test [3]; more than 10 µM in test [4]; more than 10 µM in test [5]; 1 to 10 µM in test [6] (setting [12]). In addition, the IC50 in [7], in [8], in test [9] and in [10] was more than 10 µM in each case.

As for `C=CS(=O)(=O)N1CCC(C(=O)N(C)[C@H](C(=O)N[C@H]2Cc3cccc(c3)-c3ccc4c(c3)c(c(-c3cncnc3)n4CC)CC(C)(C)COC(=O)[C@@H]3CCCN(N3)C2=O)C(C)C)C1` (single isomer, unassigned) [Example A171], the IC50 in test [1] is more than 10 µM; in test [2] (setting [11]), 0.1 to 1 µM; in test [3], more than 10 µM; in test [4], more than 10 µM; in [5], more than 10 µM; in [6] (setting [12]), 1 to 10 µM. In addition, the IC50 in [7], in [8], in test [9] and in test [10] was more than 10 µM each time.

`C=CC(=O)N1CC[C@H](C(=O)N(C)[C@H](C(=O)N[C@H]2Cc3cc(ccn3)-c3ccc4c(c3)c(c(-c3cccnc3COC)n4CC)CC(C)(C)COC(=O)[C@@H]3CCCN(N3)C2=O)C(C)C)C1` [Example A136]: the IC50 in test [1] was more than 10 µM; in test [2] (setting [11]), more than 1 µM; in [3] it was more than 10 µM; in test [4], more than 10 µM; in test [5], more than 10 µM; in [6] (setting [12]) it was more than 10 µM. Moreover, the IC50 in [7], in test [8], in test [9] and in test [10] was more than 10 µM each time.

Turning to `C=CC(=O)N1CC[C@H](C(=O)N(C)[C@H](C(=O)N[C@H]2Cc3cc(O)cc(c3)-c3ccc4c(c3)c(c(-c3cncs3)n4CC)CC(C)(C)COC(=O)[C@@H]3CCCN(N3)C2=O)C(C)C)C1` [Example A143], the IC50 was 1 to 10 µM in [1]; 0.01 to 0.1 µM in test [2] (setting [11]); more than 10 µM in test [3]; more than 10 µM in test [4]; more than 10 µM in test [5]; more than 10 µM in test [6] (setting [12]). For the same compound, the IC50 in test [7] is more than 10 µM; in [8] it was 1 to 10 µM; in [9], 1 to 10 µM; in [10], more than 10 µM.

As to `C=CC(=O)N1CC[C@H](C(=O)N(C)[C@H](C(=O)N[C@H]2Cc3cc(O)cc(c3)-c3ccc4c(c3)c(c(-c3cccc(=O)n3C(C)C)n4CC)CC(C)(C)COC(=O)[C@@H]3CCCN(N3)C2=O)C(C)C)C1` [Example A151], the IC50 was 1 to 10 µM in [1]; 0.1 to 1 µM in test [2] (setting [11]); more than 10 µM in [3]; 1 to 10 µM in [4]; more than 10 µM in test [5]; more than 10 µM in test [6] (setting [12]). Further, the IC50 in test [7] is more than 10 µM; in test [8] it was 1 to 10 µM; in test [9] it was 1 to 10 µM; in test [10], more than 10 µM.

Turning to `C=CC(=O)N1CC[C@H](C(=O)N(C)[C@H](C(=O)N[C@H]2Cc3cc(O)cc(c3)-c3ccc4c(c3)c(c(-c3cccnc3)n4[C@H](C)C#N)CC(C)(C)COC(=O)[C@@H]3CCCN(N3)C2=O)C(C)C)C1` [Example A193], the IC50 is 0.1 to 1 µM in [1]; 0.054 µM in [2] (read-out: H358 Cell Viability (K-Ras G12C) IC50, uM, NCI-H358, 5-day treatment); 1 to 10 µM in test [3]; 1 to 10 µM in [4]; more than 10 µM in test [5]; 1 to 10 µM in test [6] (setting [12]). Besides, the IC50 is 10.2 µM in test [6] (with Cyclophilin A, BRAF RBD, read-out: FRET (K-Ras G13C) IC50); 1 to 10 µM in test [7]; 0.1 to 1 µM in test [8]; 1 to 10 µM in [9]; 1 to 10 µM in test [10].

Take `C=CC(=O)N1CC[C@H](C(=O)N(C)[C@H](C(=O)N[C@H]2Cc3cc(O)cc(c3)-c3ccc4c(c3)c(c(-c3c(C)cccc3C)n4CC)CC(C)(C)COC(=O)[C@@H]3CCCN(N3)C2=O)C(C)C)C1` [Example A226]: the IC50 in test [1] is 1 to 10 µM; in test [2] (setting [11]) it was 0.1 to 1 µM; in test [3], more than 10 µM; in test [4], more than 10 µM; in [5], more than 10 µM; in test [6] (setting [12]), more than 10 µM. In addition, the IC50 is more than 10 µM in [7], 1 to 10 µM in test [8], more than 10 µM in [9] and more than 10 µM in test [10].

On to `C=CC(=O)N1CC[C@H](C(=O)N(C)[C@H](C(=O)N[C@H]2Cc3cc(O)cc(c3)-c3ccc4c(c3)c(c(-c3cccc5c3COC5)n4CC)CC(C)(C)COC(=O)[C@@H]3CCCN(N3)C2=O)C(C)C)C1` [Example A227], for which the IC50 in test [1] is 1 to 10 µM; in test [2] (setting [11]), 0.1 to 1 µM; in test [3], 1 to 10 µM; in test [4], 1 to 10 µM; in [5], more than 10 µM; in test [6] (setting [12]), 1 to 10 µM. Also, the half-maximal inhibitory concentration (IC50) in [7] is more than 10 µM; in test [8], 1 to 10 µM; in [9] it was 1 to 10 µM; in [10] it was more than 10 µM.

For `C=CC(=O)N1CC[C@H](C(=O)N(C)[C@H](C(=O)N[C@H]2Cc3cc(O)cc(c3)-c3ccc4c(c3)c(c(-c3cnc(N(C)C)s3)n4CC)CC(C)(C)COC(=O)[C@@H]3CCCN(N3)C2=O)C(C)C)C1` [Example A302], the IC50 was 1 to 10 µM in test [1]; 0.01 to 0.1 µM in test [2] (setting [11]); 1 to 10 µM in [3]; more than 10 µM in [4]; more than 10 µM in test [5]; 0.1 to 1 µM in test [6] (setting [12]). The IC50 in test [7] is 1 to 10 µM; in test [8] it was 1 to 10 µM; in [9], more than 10 µM; in [10], more than 10 µM.

`C=CC(=O)N1CC[C@H](C(=O)N(C)[C@H](C(=O)N[C@H]2Cc3cc(O)cc(c3)-c3ccc4c(c3)c(c(-c3csc(N(C)C)n3)n4CC)CC(C)(C)COC(=O)[C@@H]3CCCN(N3)C2=O)C(C)C)C1` [Example A303]: the IC50 is more than 10 µM in test [1]; 0.1 to 1 µM in test [2] (setting [11]); more than 10 µM in test [3]; more than 10 µM in [4]; more than 10 µM in [5]; more than 10 µM in test [6] (setting [12]). Moreover, the concentration for half-maximal inhibition (IC50) in test [7], in test [8], in test [9] and in test [10] was more than 10 µM each time.

Take `C=CC(=O)N1CCOC2(CCN(C(=O)N(C)[C@H](C(=O)N[C@H]3C[C@H]4CN(CCO4)c4ccc5c(c4)c(c(-c4cccnc4[C@H](C)OC)n5CC)CC(C)(C)COC(=O)[C@@H]4CCCN(N4)C3=O)C(C)C)CC2)C1` [Example A564]: the half-maximal inhibitory concentration (IC50) in test [1] was 0.1 to 1 µM; in test [2] (setting [11]), 0.01 to 0.1 µM; in [3], 0.1 to 1 µM; in test [4], 0.1 to 1 µM; in test [5] it was 1 to 10 µM; in [6] (setting [12]) it was 0.01 to 0.1 µM. Also, the IC50 lay in the range of 1 to 10 µM in test [7], 0.1 to 1 µM in [8], 1 to 10 µM in [9] and 1 to 10 µM in [10].

Take `CCn1c(-c2cccnc2[C@H](C)OC)c2c3cc(ccc31)-c1cccc(c1)CC(NC(=O)[C@H](C(C)C)N1CC[C@]3(CCN(C(=O)C#C[C@@H]4COCCN4C4COC4)C3)C1=O)C(=O)N1CCC[C@H](N1)C(=O)OCC(C)(C)C2` (stereo partly shown) [Example A565]: the IC50 was 1 to 10 µM in test [1]; 0.01 to 0.1 µM in [2] (setting [11]); more than 10 µM in test [3]; more than 10 µM in test [4]; more than 10 µM in test [5]; 1 to 10 µM in [6] (setting [12]). In addition, the IC50 in test [7] is more than 10 µM; in test [8] it was 1 to 10 µM; in test [9], more than 10 µM; in test [10] it was more than 10 µM.

The IC50 is the point on the concentration scale where inhibition reaches its midpoint.
